# Assay results as given in the supplement of paper PMC11451515.
# Key:
# Assay in all cases: AUC of viability dose-response curve (% viability x log10 dose units); higher = less sensitive
# Conditions in all cases: 48 h
# [1] = system: SEM cells
# Procedure, shortened: (§1)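 Seeding of medium-adapted leukemia cells was at 500 or 1000 cells/well in 1536-well plates, followed by 48 h at 37°C with library compounds in DMSO at 11 threefold doses from 47 μM to 0.79 nM. CellTiter-Glo One luminescence was normalised per plate to DMSO and cell-free wells and fitted as a four-parameter log-logistic function of log10 dose. Area under the curve was integrated by trapezoidal rule, with curves exceeding full viability scaled and curves failing quality control removed.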
# [2] = system: P12-Ichikawa
# Procedure, shortened: as §1
# [3] = system: NOMO1
# Procedure, shortened: as §1
# [4] = RPMI 5 mM glucose + 10% dialyzed FBS
Compound,AUC of viability dose-response curve ([1]; HPLM + 10% dialyzed FBS),AUC of viability dose-response curve ([1]; RPMI 5 mM glucose + 10% FBS),"AUC of viability dose-response curve [1, 4]",AUC of viability dose-response curve ([2]; HPLM + 10% dialyzed FBS),AUC of viability dose-response curve ([2]; RPMI 5 mM glucose + 10% FBS),"AUC of viability dose-response curve [2, 4]",AUC of viability dose-response curve ([3]; HPLM + 10% dialyzed FBS),AUC of viability dose-response curve ([3]; RPMI 5 mM glucose + 10% FBS),"AUC of viability dose-response curve [3, 4]"
COc1ccc2c(c1)[C@]13CCCCC1C(C2)N(C)CC3 (stereo partly drawn),435,443,467,467,474,457,468,466,469
CCCCN(CCCC)CC(O)c1cc(Cl)cc2c1-c1ccc(Cl)cc1/C2=C/c1ccc(Cl)cc1 (stereo not drawn),463,438,434,446,472,448,456,449,461
CN1CCCN(CC1)C2=CC=C3C(=O)\C(=C/4SC5=C(C=CC=C5)N4C3=N2)C(=O)NCC6=CN=C(C)C=N6,417,335,374,447,410,420,442,468,450
COc1c(C)c2c(c(O)c1C/C=C(\C)CCC(=O)O)C(=O)OC2,436,414,445,426,392,404,421,425,428
Nc1ccc([S+](=O)([O-])Nc2ccnn2-c2ccccc2)cc1,444,452,440,470,455,464,446,467,451
CCCNC(=O)Nc1ccc(Oc2ncnc3cc(OC)c(OC)cc23)cc1Cl,441,402,413,438,433,440,419,417,424
CN(C)CC(C)(C)CNc1nn2c(-c3ccccc3)nnc2cc1C1CCC1,,,,411,405,433,416,447,459
CC12CC3CC(C)(C1)CC(N)(C3)C2,440,419,459,450,464,467,446,457,461
COc1cc2c(cc1OC)CN(CCc1ccc(NC(=O)c3cc(OC)c(OC)cc3NC(=O)c3cnc4ccccc4c3)cc1)CC2,445,418,432,412,401,402,459,458,464
CC#CCn1c(N2CCC[C@@H](N)C2)nc2c1c(=O)n(Cc1nc(C)c3ccccc3n1)c(=O)n2C,475,460,433,473,450,449,471,443,457
O=P(O)(O)C(O)(Cn1ccnc1)P(=O)(O)O,427,425,424,448,445,450,471,474,477
CC[C@H]1OC(=O)[C@H](C)C(=O)[C@H](C)[C@@H](O[C@H]2O[C@H](C)C[C@H](N(C)C)[C@H]2O)[C@](C)(OC)C[C@@H](C)C(=O)[C@H](C)[C@H]2N(CCCCn3cnc(-c4cccnc4)c3)C(=O)O[C@]12C,447,462,453,452,444,395,439,447,459
Cc1ccnc2c1NC(=O)c1cccnc1N2C1CC1,457,439,444,474,464,473,405,424,436
CC(N[C@H]1CCCC[C@@H]1NC(=O)c1ccc(Cl)cc1)c1cccc2ccccc12 (stereo partly drawn),449,449,455,428,420,425,398,416,421
COC1=C(OCCCN2CCOCC2)C=CC\3=C1/N=C(/NC(=O)C4=CN=C(N)N=C4)N5CC/N=C35,369,360,358,385,344,364,,,
CC(=O)Oc1ccccc1C(=O)Nc1ncc([N+](=O)[O-])s1,441,454,470,457,446,442,459,464,420
OCC(O)C(O)C(O)CO (stereo not drawn),421,429,402,455,432,429,430,414,447
C[C@@H](CN1CC(=O)NC(=O)C1)N1CC(=O)NC(=O)C1,233,206,198,278,317,303,273,296,301
CCOC(=O)\C1=C\[C@]2(CC)CCCN3CCC4=C([C@H]23)[N]1C5=C4C=CC=C5,464,469,476,469,470,468,464,464,466
CC[C@@H]([C@H](C)O)n1ncn(-c2ccc(N3CCN(c4ccc(OCC5CO[C@@](Cn6cncn6)(c6ccc(F)cc6F)C5)cc4)CC3)cc2)c1=O (stereo partly drawn),452,452,458,450,447,425,457,427,423
COC1=C(OCCCN2CCOCC2)C=C3N=CC=C(OC4=CC=C(C=C4F)\C5=C\N=C(\NC6=CC=C(F)C=C6)N(C)C5=O)C3=C1,282,297,258,447,448,445,441,447,429
CN1CC(=O)N2[C@H](c3ccc4c(c3)OCO4)c3[nH]c4ccccc4c3C[C@@H]2C1=O,466,435,461,456,440,419,427,447,449
NC[C@H]1O[C@H](O[C@@H]2[C@H](O)[C@@H](O[C@H]3O[C@H](CO)[C@@H](O)[C@H](N)[C@H]3O)[C@H](N)C[C@@H]2N)[C@H](O)[C@@H](O)[C@@H]1O,,,,445,466,461,455,452,458
